Where “and” joins values, the source holds several entries; their conditions need not be identical. Identical values can stand only once. No end group written: not given here.
Columns and labels:
[1] = system: Lewis rats; experiment: Subcutaneous implantation of cardiomyocyte/hydrogel constructs and histological assessment
Description: Cardiac constructs were made by encapsulation of neonatal Lewis rat cardiomyocytes in Az-chitosan-QHREDGS or Az-chitosan-RGDS. A total of 2×10^6 cardiomyocytes were resuspended in 15 μL of ice cold cardiomyocytes medium with 30% FBS for at least 10 min. These cells were then encapsulated in 100 μL of the hydrogel in transwell plates and constructs (2 mm thick and 6 mm in diameter) were produced. A total of 8 samples were made for each type of hydrogel, and 4 from each group were implanted, while the other 4 were retained as in vitro controls. Samples were cultured at 37° C. for 5 d before they were implanted in vivo.
Cardiac constructs described above were inserted subcutaneously into the abdomen of Lewis rats. Four samples were implanted for each type of hydrogel. […] Quantification of total SMA and Factor VIII was performed using ImageScope v10 (Aperio Technologies) and mean intensities were averaged for six fields for each sample and normalized to total area. […] Apoptosis was assessed using a TUNEL assay (Roche Applied Science) following the manufacturer's standard protocol.

[2] = system: neonatal cardiomyocytes encapsulated in chitosan hydrogels; experiment: Functional testing by electrical field stimulation (ET, MCR) of encapsulated cardiomyocytes; assay type: cell-based, rat
Description: The electrical function of in vitro samples of neonatal cardiomyocytes encapsulated in chitosan hydrogels for 6 d was established by measuring excitation threshold (ET), the minimum voltage required to pace the encapsulated cells simultaneously, and maximum capture rate (MCR) as previously described, (Radisic, Park et al. 2004), the contents of which are incorporated by reference. The MCR is the maximum stimulation rate at which the encapsulated cardiomyocytes can be induced to beat simultaneously, the encapsulated samples were placed between a pair of carbon electrodes immersed in warm Tyrode solution (Sigma, pH 7.4). The ET was measured by stimulating the samples with square pulses of 2 ms width at a frequency of 1 Hz and increasing the output voltage of the stimulator until ˜90% of the cells in the field-of-view were beating synchronously with the stimulator output. The MCR was measured by setting the output at 15 V, and increasing the frequency until most of the cells in the sample were no longer synchronously beating with the driving signal. All measurements were taken using bright field microscopy. The samples were placed in an environmental chamber at 37° C. for the measurements (N=3/group).

[3] = 7 days after subcutaneous implantation

Az-chitosan-QHREDGS: QHREDGS peptide covalently conjugated to Az-chitosan by EDC chemistry (also: covalently conjugated to Az-chitosan by EDC chemistry, site not given here)
cardiomyocytes in implant (sarcomeric α-actinin, troponin I staining) [1, 3]: larger areas of cardiomyocytes
percentage of apoptotic cells (TUNEL) [1, 3]: ~1.5%
apoptotic cardiomyocytes (troponin I and TUNEL double staining) ([1]; 7 days after subcutaneous implantation, vs RGDS modified hydrogel): fewer apoptotic cardiomyocytes
biomaterial degradation and cell infiltration (H&E) ([1]; day 7 after subcutaneous implantation): less cell infiltration
percentage of SMA+ myofibroblasts ([1]; vs Az-chitosan-RGDS hydrogel): significantly higher percentage of SMA+ myofibroblasts
ET (excitation threshold) ([2]; after six days of cultivation): 7.0 ± 0.4; V and 9.2 ± 0.6 V
MCR (maximum capture rate) ([2]; after six days of cultivation): 4.3 ± 0.1 pps
cardiomyocyte contraction under electrical field stimulation ([2]; end of cultivation period): beat synchronously

From patent US9096643B2, “Cell-protective peptides and uses thereof” (priority 2010, dated 2015)
